4 compounds from PubChem BioAssay (NCI) can be followed below.

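Assay format: 96-well plates, 48-hour exposure. TGI: total growth inhibition.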

One test relates to NCI-H226 lung. In words: NCI anticancer screen, dose series, 48 h.
`O=C1CCC(NC(=O)c2ccccc2)C(=O)N1` (stereo unspecified): the TGI was above 100 µM.

For the next test, the system named is NCI-H23 lung. Nature of the test: NCI anticancer screen, dose series, 48 h.
On to `O=C1N[C@@H]2c3c(csc3Br)C(=O)[C@@H]2O1`, for which the TGI is above 100 µM.

Turning to `Cc1cc(C)c2c(n1)S(=O)(=O)N(CCCN1CCN(c3cccc(C(F)(F)F)c3)CC1)/C(=C(\O)c1ccc(Cl)cc1)C2=O`, the TGI turned out to be 14 µM.

For the compound `CCn1c(=O)c2c3cc(O)ccc3oc2c2ccc(O)cc21`, the TGI was above 100 µM.

In turn, `O=C1CCC(NC(=O)c2ccccc2)C(=O)N1` (stereo unspecified) returned a TGI above 100 µM.

Another test deals with NCI-H460 lung. In words: NCI anticancer screen, dose series, 48 h.
As to `O=C1N[C@@H]2c3c(csc3Br)C(=O)[C@@H]2O1`, the TGI is above 100 µM.

As for `Cc1cc(C)c2c(n1)S(=O)(=O)N(CCCN1CCN(c3cccc(C(F)(F)F)c3)CC1)/C(=C(\O)c1ccc(Cl)cc1)C2=O`, the TGI was 11 µM.

On to `CCn1c(=O)c2c3cc(O)ccc3oc2c2ccc(O)cc21`, for which the TGI was above 100 µM.

Consider `O=C1CCC(NC(=O)c2ccccc2)C(=O)N1` (stereo unspecified), for which the TGI is above 100 µM.

For another test, the system named is NCI-H522 lung. In words: NCI anticancer screen, dose series, 48 h.
Compound `O=C1N[C@@H]2c3c(csc3Br)C(=O)[C@@H]2O1` registered a TGI of 68.3 µM.

`Cc1cc(C)c2c(n1)S(=O)(=O)N(CCCN1CCN(c3cccc(C(F)(F)F)c3)CC1)/C(=C(\O)c1ccc(Cl)cc1)C2=O` had a TGI of 14.8 µM.

The compound `CCn1c(=O)c2c3cc(O)ccc3oc2c2ccc(O)cc21` showed a TGI of 63.9 µM.

`O=C1CCC(NC(=O)c2ccccc2)C(=O)N1` (stereo unspecified) gave a TGI above 100 µM.

For the next test, the system named is NCI/ADR-RES ovarian. In words: NCI anticancer screen, dose series, 48 h.
`O=C1N[C@@H]2c3c(csc3Br)C(=O)[C@@H]2O1` displayed a TGI above 100 µM.

As to `Cc1cc(C)c2c(n1)S(=O)(=O)N(CCCN1CCN(c3cccc(C(F)(F)F)c3)CC1)/C(=C(\O)c1ccc(Cl)cc1)C2=O`, the TGI worked out at 16.4 µM.

`CCn1c(=O)c2c3cc(O)ccc3oc2c2ccc(O)cc21` registered a TGI above 100 µM.

In the case of `O=C1CCC(NC(=O)c2ccccc2)C(=O)N1` (stereo unspecified), the TGI is above 100 µM.

Another test concerns OVCAR-3 ovarian. Nature of the test: NCI anticancer screen, dose series, 48 h.
Regarding `O=C1N[C@@H]2c3c(csc3Br)C(=O)[C@@H]2O1`, the TGI came to 47.8 µM.

`Cc1cc(C)c2c(n1)S(=O)(=O)N(CCCN1CCN(c3cccc(C(F)(F)F)c3)CC1)/C(=C(\O)c1ccc(Cl)cc1)C2=O` displayed a TGI of 18.9 µM.

For `CCn1c(=O)c2c3cc(O)ccc3oc2c2ccc(O)cc21`, the TGI was above 100 µM.

`O=C1CCC(NC(=O)c2ccccc2)C(=O)N1` (stereo unspecified): the TGI was above 100 µM.

A further test has as its system OVCAR-4 ovarian. In words: NCI anticancer screen, dose series, 48 h.
For the compound `Cc1cc(C)c2c(n1)S(=O)(=O)N(CCCN1CCN(c3cccc(C(F)(F)F)c3)CC1)/C(=C(\O)c1ccc(Cl)cc1)C2=O`, the TGI is 15.1 µM.

Compound `CCn1c(=O)c2c3cc(O)ccc3oc2c2ccc(O)cc21` registered a TGI above 100 µM.

`O=C1CCC(NC(=O)c2ccccc2)C(=O)N1` (stereo unspecified) returned a TGI above 100 µM.

Another test has as its system OVCAR-5 ovarian. Nature of the test: NCI anticancer screen, dose series, 48 h.
The compound `O=C1N[C@@H]2c3c(csc3Br)C(=O)[C@@H]2O1` displayed a TGI above 100 µM.

`Cc1cc(C)c2c(n1)S(=O)(=O)N(CCCN1CCN(c3cccc(C(F)(F)F)c3)CC1)/C(=C(\O)c1ccc(Cl)cc1)C2=O`: the TGI came to 18.1 µM.

`O=C1CCC(NC(=O)c2ccccc2)C(=O)N1` (stereo unspecified): the TGI was above 100 µM.

For the next test, the system named is OVCAR-8 ovarian. Nature of the test: NCI anticancer screen, dose series, 48 h.
For the compound `O=C1N[C@@H]2c3c(csc3Br)C(=O)[C@@H]2O1`, the TGI is 57.6 µM.

On to `Cc1cc(C)c2c(n1)S(=O)(=O)N(CCCN1CCN(c3cccc(C(F)(F)F)c3)CC1)/C(=C(\O)c1ccc(Cl)cc1)C2=O`, for which the TGI is 29.5 µM.

`CCn1c(=O)c2c3cc(O)ccc3oc2c2ccc(O)cc21` displayed a TGI above 100 µM.

Take `O=C1CCC(NC(=O)c2ccccc2)C(=O)N1` (stereo unspecified): the TGI was above 100 µM.

A further test has as its system PC-3 prostate. In words: NCI anticancer screen, dose series, 48 h.
`O=C1N[C@@H]2c3c(csc3Br)C(=O)[C@@H]2O1` displayed a TGI above 100 µM.

Compound `Cc1cc(C)c2c(n1)S(=O)(=O)N(CCCN1CCN(c3cccc(C(F)(F)F)c3)CC1)/C(=C(\O)c1ccc(Cl)cc1)C2=O` registered a TGI of 13.6 µM.

Compound `CCn1c(=O)c2c3cc(O)ccc3oc2c2ccc(O)cc21` registered a TGI above 100 µM.

For the compound `O=C1CCC(NC(=O)c2ccccc2)C(=O)N1` (stereo unspecified), the TGI was above 100 µM.

A further test has as its system RPMI-8226 leukemia. In words: NCI anticancer screen, dose series, 48 h.
On to `O=C1N[C@@H]2c3c(csc3Br)C(=O)[C@@H]2O1`, for which the TGI is 85.1 µM.

The compound `O=C1CCC(NC(=O)c2ccccc2)C(=O)N1` (stereo unspecified) registered a TGI above 100 µM.

Another test concerns RXF 393 renal. In words: NCI anticancer screen, dose series, 48 h.
`O=C1N[C@@H]2c3c(csc3Br)C(=O)[C@@H]2O1` showed a TGI of 43.7 µM.

`Cc1cc(C)c2c(n1)S(=O)(=O)N(CCCN1CCN(c3cccc(C(F)(F)F)c3)CC1)/C(=C(\O)c1ccc(Cl)cc1)C2=O` registered a TGI of 19.1 µM.

Compound `CCn1c(=O)c2c3cc(O)ccc3oc2c2ccc(O)cc21` had a TGI above 100 µM.

Compound `O=C1CCC(NC(=O)c2ccccc2)C(=O)N1` (stereo unspecified) displayed a TGI above 100 µM.

A further test deals with SF-268 CNS. Nature of the test: NCI anticancer screen, dose series, 48 h.
`O=C1N[C@@H]2c3c(csc3Br)C(=O)[C@@H]2O1` showed a TGI above 100 µM.

For `Cc1cc(C)c2c(n1)S(=O)(=O)N(CCCN1CCN(c3cccc(C(F)(F)F)c3)CC1)/C(=C(\O)c1ccc(Cl)cc1)C2=O`, the TGI came out at 21.2 µM.

Compound `CCn1c(=O)c2c3cc(O)ccc3oc2c2ccc(O)cc21` came in with a TGI above 100 µM.

Take `O=C1CCC(NC(=O)c2ccccc2)C(=O)N1` (stereo unspecified): the TGI is above 100 µM.

The test system of another test is SF-295 CNS. Nature of the test: NCI anticancer screen, dose series, 48 h.
`O=C1N[C@@H]2c3c(csc3Br)C(=O)[C@@H]2O1` yielded a TGI above 100 µM.

`Cc1cc(C)c2c(n1)S(=O)(=O)N(CCCN1CCN(c3cccc(C(F)(F)F)c3)CC1)/C(=C(\O)c1ccc(Cl)cc1)C2=O` displayed a TGI of 14.2 µM.

As to `CCn1c(=O)c2c3cc(O)ccc3oc2c2ccc(O)cc21`, the TGI is above 100 µM.

In turn, `O=C1CCC(NC(=O)c2ccccc2)C(=O)N1` (stereo unspecified) showed a TGI above 100 µM.

Another test deals with SF-539 CNS. Nature of the test: NCI anticancer screen, dose series, 48 h.
For the compound `O=C1N[C@@H]2c3c(csc3Br)C(=O)[C@@H]2O1`, the TGI was above 100 µM.

The compound `Cc1cc(C)c2c(n1)S(=O)(=O)N(CCCN1CCN(c3cccc(C(F)(F)F)c3)CC1)/C(=C(\O)c1ccc(Cl)cc1)C2=O` registered a TGI of 17.1 µM.

Regarding `CCn1c(=O)c2c3cc(O)ccc3oc2c2ccc(O)cc21`, the TGI was determined as 73 µM.

As to `O=C1CCC(NC(=O)c2ccccc2)C(=O)N1` (stereo unspecified), the TGI was above 100 µM.

The next test concerns SK-MEL-2 melanoma. Nature of the test: NCI anticancer screen, dose series, 48 h.
`O=C1N[C@@H]2c3c(csc3Br)C(=O)[C@@H]2O1` registered a TGI above 100 µM.

The compound `Cc1cc(C)c2c(n1)S(=O)(=O)N(CCCN1CCN(c3cccc(C(F)(F)F)c3)CC1)/C(=C(\O)c1ccc(Cl)cc1)C2=O` came in with a TGI of 16.8 µM.

`O=C1CCC(NC(=O)c2ccccc2)C(=O)N1` (stereo unspecified) displayed a TGI above 100 µM.
